Measurements published in patent US8044028B2, “Oligopeptides and their use in cosmetics” (Cognis France S.A.S., priority 2004, dated 2011).
No end group written: not given here. *: point of attachment. Palmitoyl = CCCCCCCCCCCCCCCC(=O)*

Experiments:
[1] = tested on: human keratinocytes; test: Effects on the growth of human primary keratinocytes (cellular DNA content, ethidium bromide fluorescence); format: cell-based; settings: for DNA after culture for 4-5 days: % based on control (standard medium without additives = 100), average of 3 assays in triplicate; for growth of human keratinocytes (result in words): keratinocytes cultivated from biopsies of adult subjects, activity still detected after 5 days without changing medium; for DNA after culture for 3 days: % based on control = 100
Procedure: The aim of this test was to analyse the revitalizing and regenerating activities of oligpopeptides according to the invention on human keratinocyte cultures in vitro.
Human keratinocytes were obtained by trypsinization of skin biopsies. They were incubated in standard medium for cell cultures with foetal calf serum (FCS) and growth factors (EGF 10 ng/ml). After cultivation for 2 days at 37° C. and a CO2 content of 5%, the medium was replaced by standard medium with varying concentrations of peptides. […] The fluorescence was determined using a fluorimeter (excitation at 538 nm and emission at 590 nm). The foetal calf serum forms a positive control because it comprises many growth factors, such as, for example, IGF (insulin-like growth factor) and PDGF (platelet derived growth factor).
The results are shown in Table 1 and 2 as the average value from 3 assays in triplicate in % based on a control in which the standard medium comprised no additives.

[2] = tested on: syndecan-1; test: Stimulation of the synthesis of syndecan-1 on human keratinocytes (immunocytochemistry, image analysis); format: cell-based; settings: keratinocyte culture, biopsies of adult subjects
Procedure: Monoclonal antibody anti-syndecan-1 and secondary antibody FITC conjugated were obtained from TEBU, Le Perray en Yvelines and BIO-RAD, Marnes-la-Coquette; KGF (Keratinocyte Growth Factor) (positive control) was obtained from SIGMA, L′Isle d'Abeau Chesnes.
Human keratinocytes were seeded in DMEM standard medium for 2 days at 37° C., CO2=5%. Then, N-Acetyl-Pro-Pro-Tyr-Leu (Seq. ID No. 375) or positive control KGF are introduced and after 5 days of incubation at 37° C., CO2=5%, the synthesis of syndecan-1 was evaluated on glass slides by immunocytochemistry. Quantification of the staining was carried out by image analysis.
The results are shown in table 3 as the mean of the sum±SEM of the product of number of pixels by green detected values (arbitrary unit).

Molecule | DNA after culture for 4-5 days ([1]; 0.001 % (w/v) peptide) | DNA after culture for 4-5 days ([1]; 0.003 % (w/v) peptide) | growth of human keratinocytes (result in words) [1] | DNA after culture for 3 days ([1]; 0.00005 % (w/v) peptide) | DNA after culture for 3 days ([1]; 0.00015 % (w/v) peptide) | syndecan-1 expression / synthesis in human keratinocytes (result in words) [2]
Tyr-Leu-Pro-Arg-Pro [Example 6] | 110 +/− 6% | 146 +/− 24% | stimulate the growth of human keratinocytes |  |  | 
Pro-Tyr-Leu-Pro-Arg (PYLPR; peptide derived from cathelicidin PR-39) [Example 5, R1=H, R2=OH] | 118 +/− 3% | 112 +/− 5% | stimulate the growth of human keratinocytes |  |  | 
Arg-Pro-Pro-Tyr-Leu (RPPYL; peptide derived from cathelicidin PR-39) [Example 3, R1=H, R2=OH] | 97 +/− 1% | 118 +/− 10% | stimulate the growth of human keratinocytes |  |  | 
N-Palmitoyl-Pro-Pro-Tyr-Leu (Palmitoyl-PPYL) [Example 7, [AA] is Pro-Pro-Tyr-Leu, R1 is Palmitoyl and R2 is OH] |  |  |  | 136 +/− 13% | 135 +/− 8% | 
Arg-Arg-Arg-Pro-Arg (RRRPR; peptide derived from cathelicidin PR-39) [Example 2, R1=H, R2=OH] | 119 +/− 6% | 126 +/− 8% | stimulate the growth of human keratinocytes |  |  | 
N-Acetyl-Pro-Pro-Tyr-Leu (Ac-PPYL) [[AA] is Pro-Pro-Tyr-Leu, R1 is Acetyl, and R2 is OH] |  |  |  |  |  | stimulates the synthesis of syndecan-1
RRRPRPPYLPRPRPP [Example 1] | 124 +/− 15% | 131 +/− 11% | stimulate the growth of human keratinocytes |  |  | 
Pro-Pro-Tyr-Leu (PPYL; peptide derived from cathelicidin PR-39) [Example 4, R1=H, R2=OH] | 150 +/− 26% | 166 +/− 7% | stimulate the growth of human keratinocytes |  |  | 
KGF: KGF (Keratinocyte Growth Factor) (positive control), obtained from SIGMA (protein, UniProt P21781 32-194, looked up) Fibroblast growth factor 7: CNDMTPEQMATNVNCSSPERHTRSYDYMEGGDIRVRRLFCRTQWYLRIDKRGKVKGTQEMKNNYNIMEIRTVAVGIVAIKGVESEFYLAMNKEGKLYAKKECNEDCNFKELILENHYNTYASAKWTHNGGEMFVALNQKGIPVRGKKTKKEQKTAHFLPMAIT |  |  |  |  |  | induced an increase of syndecan-1 expression
